The nature of data set [1]: xn = mol fraction of the nth substance listed. Conditions: 298 K, 100 kPa, Crystal, X-ray diffraction.
A short description of data set [2]: excess molar enthalpy (molar enthalpy of mixing); xn = mol fraction of the nth substance listed. The following applies: 298 K, 100 kPa, Crystal, Calvet calorimetry.

Each structure is given as a SMILES string. ± gives the expanded uncertainty stated by the source.

Broadly, the mass density is the mass of a sample divided by its volume. As for `[O-2].[O-2].[Th+4]` [thorium dioxide] + [O-2].[O-2].[U+4], the mass density in data set [1] (x1 = 0.2209) stood at 10730 ± 90 kg/m3; in data set [1] (x1 = 0.4319), 10510 ± 90 kg/m3; in data set [1] (x1 = 0.7519), 10070 ± 90 kg/m3. Moreover, the excess molar enthalpy in data set [2] (x1 = 0.2209) is -6.91 ± 3.2 kJ/mol; in data set [2] (x1 = 0.4319), 1.55 ± 4.7 kJ/mol; in data set [2] (x1 = 0.7519), -1.18 ± 2.8 kJ/mol.
For `[O-2].[O-2].[Zr+4]` [zirconium oxide] + [O-2].[O-2].[U+4], the mass density in data set [1] (x1 = 0.0847) is 10630 ± 90 kg/m3; in data set [1] (x1 = 0.1557) it was 10260 ± 90 kg/m3; in data set [1] (x1 = 0.2937), 9570 ± 70 kg/m3. The excess molar enthalpy in data set [2] (x1 = 0.0847) was -9.12 ± 4.2 kJ/mol; in data set [2] (x1 = 0.1557), -8.85 ± 3.5 kJ/mol; in data set [2] (x1 = 0.2937) it was 0.81 ± 3.2 kJ/mol.
